Laboratory results as given in PubChem BioAssay AID1996.
≈ marks a conversion by molar mass, not a printed value.

Conditions: buffer; pH 7.4; 200.0 µM
With `CN(c1ccccc1)S(=O)(=O)c1ccc(Cl)c(C(=O)NCc2ccco2)c1` the solubility kinetic was 47.2 µg/mL (≈ 117 µM). Work on `CN(CC(=O)Nc1cccc(C(F)(F)F)c1)Cc1ccccc1` yielded a solubility kinetic of 20.8 µg/mL (≈ 64.5 µM). Work on `NC(=Nc1ccc(Br)cc1)c1ccccc1` yielded a solubility kinetic greater than 41.3 µg/mL. For `COc1ccc(NC(=S)Nc2ccc(N(C)C(C)=O)cc2)cc1`, the solubility kinetic was greater than 49.4 µg/mL. `COc1cc(/C=N/O)ccc1Oc1cnccn1` showed a solubility kinetic greater than 36.8 µg/mL. In the case of `Cc1nc2ccccc2cc1C(=O)N(C)Cc1ccccc1`, the solubility kinetic is reported as 43 µg/mL (≈ 148 µM). `CCCCc1noc(-c2c(-c3ccccc3Cl)noc2C)n1` gave a solubility kinetic of 0.6 µg/mL (≈ 1.89 µM). Compound `O=C(O)/C=C/C(=O)Nc1ccc(OC(F)F)cc1` has a solubility kinetic greater than 38.6 µg/mL. `COc1ccc(Cl)cc1NC(=O)C(C)N1CCc2ccccc21` (stereo unspecified) gave a solubility kinetic of 1.1 µg/mL (≈ 3.33 µM). `CCOC(=O)/C(C#N)=C1/C=C(C)c2ccccc2N1` showed a solubility kinetic of 0.4 µg/mL (≈ 1.57 µM). In the case of `Cc1nc(SCC(=O)N(C)C2CCS(=O)(=O)C2)c2ccccc2n1` (stereo unspecified), the solubility kinetic is reported as greater than 54.8 µg/mL. With `COc1ccc2oc(C(=O)NC(C)(C)C)c(C)c2c1` the solubility kinetic was 1.8 µg/mL (≈ 6.89 µM). For `COc1ccc(OC)c(NC(=O)CC(NC(C)=O)c2ccccc2)c1` (stereo unspecified), the solubility kinetic was 45.3 µg/mL (≈ 132 µM). `Cc1ccc(NC(=O)CN2CCCC2c2cccn2C)cc1C` (stereo unspecified) showed a solubility kinetic of 42.9 µg/mL (≈ 138 µM). For `Cc1nc(NC(=S)NC(=O)c2ccco2)sc1C(=O)N(C)C`, the solubility kinetic was greater than 50.8 µg/mL. Compound `O=C(Nc1cccc(C(F)(F)F)c1)OC1CN2CCC1CC2` (stereo unspecified) has a solubility kinetic greater than 47.1 µg/mL. With `Nn1c(SCC(=O)NC2CCCCCC2)nnc1C(F)(F)F` the solubility kinetic was greater than 50.6 µg/mL. `Cc1cc(OCC(=O)N2CCCN(C)CC2)ccc1Cl` gave a solubility kinetic greater than 44.5 µg/mL. For `CCNC(=O)COC(=O)/C=C/c1cccc(F)c1`, the solubility kinetic was greater than 37.7 µg/mL. Work on `CCN(C(=O)CN1C(=S)NC(C)(C)CC1C)c1ccc(C)c(C)c1` (stereo unspecified) yielded a solubility kinetic greater than 52.1 µg/mL. `O=c1[nH]c(/C=C\c2cccc(F)c2)nc(O)c1[N+](=O)[O-]` showed a solubility kinetic greater than 41.6 µg/mL. `CSc1ccccc1NC(=O)Nc1cccc(Cl)c1C` showed a solubility kinetic of 0.5 µg/mL (≈ 1.63 µM). `O=[N+]([O-])c1ccccc1OCCN1CCOCC1` showed a solubility kinetic greater than 37.8 µg/mL. For `CCN1C(=O)c2cccc3c(S(=O)(=O)Nc4ccccc4O)ccc1c23`, the solubility kinetic was 0.5 µg/mL (≈ 1.36 µM). For `O=C(CNC(=O)c1ccccc1)OCN1C(=O)c2ccccc2C1=O`, the solubility kinetic was greater than 50.7 µg/mL. Work on `O=C(CCSCc1ccccc1F)NCc1ccc(F)cc1` yielded a solubility kinetic of 32.8 µg/mL (≈ 102 µM). `Cc1ccc(/C=C/c2ccc3cccc(O)c3n2)s1` gave a solubility kinetic of 1.4 µg/mL (≈ 5.24 µM). Compound `CCCCCCCc1c(C#N)c(N)[nH]c(=S)c1C#N` has a solubility kinetic of 31.5 µg/mL (≈ 115 µM). With `Cc1ccnc2nc(C(=O)OCC(=O)c3ccccc3)nn12` the solubility kinetic was greater than 44.4 µg/mL. Compound `Cc1ccc(NC(=O)c2ccc(COc3ccccc3)o2)nc1` has a solubility kinetic of 16 µg/mL (≈ 51.9 µM). `COc1ccccc1OCCNC(=O)Nc1ccc(Br)cc1` showed a solubility kinetic of 1.3 µg/mL (≈ 3.56 µM). In the case of `Cc1cccc(CC(=O)NC2CCN(C)CC2)c1`, the solubility kinetic is reported as greater than 37 µg/mL. Work on `Clc1ccccc1Nc1nc2ccccc2o1` yielded a solubility kinetic of 2.3 µg/mL (≈ 9.4 µM). Compound `Cc1cc(C(C)(C)C)cc(C)c1COC(=O)CN1C(=O)NC2(CCCC2)C1=O` has a solubility kinetic of 13.3 µg/mL (≈ 34.4 µM). For `c1ccc(NCc2ccncc2)cc1`, the solubility kinetic was greater than 27.6 µg/mL. `COc1ccc(OCC#CCN2CCNCC2)cc1.O=C(O)C(=O)O` gave a solubility kinetic of 52.4 µg/mL. Work on `O=C(CN1C(=O)NC2(CCCCCC2)C1=O)NCc1ccc(F)cc1` yielded a solubility kinetic greater than 52.1 µg/mL. `O=C(CCCCCCC(=O)NCc1ccccc1)NCc1ccccc1` gave a solubility kinetic of 1.4 µg/mL (≈ 3.97 µM). `CCN(CC)c1ccc(C(=S)NCc2ccccc2)cc1` gave a solubility kinetic of 0.5 µg/mL (≈ 1.68 µM). With `O=C(O)c1ccccc1OCCN1CCCC1=O` the solubility kinetic was 36.5 µg/mL (≈ 146 µM). In the case of `Cc1ccc2c(c1)/C(=C/c1ccccc1C)C(=O)N2`, the solubility kinetic is reported as 2.8 µg/mL (≈ 11.2 µM). Work on `CC(C)NC(=S)Nc1ccc2[nH]c(=O)[nH]c2c1` yielded a solubility kinetic greater than 37.5 µg/mL. `Cc1ccc(CNC(=O)CSc2ccsc2[N+](=O)[O-])cc1` gave a solubility kinetic of 5.3 µg/mL (≈ 16.4 µM). For `O=C(CCC(=O)c1ccccc1)Nc1ccccc1OC(F)F`, the solubility kinetic was greater than 47.9 µg/mL. For `COc1cccc(CNC2CCCCCCC2)c1OC`, the solubility kinetic was 31.6 µg/mL (≈ 114 µM). In the case of `CC(C)(C)c1ccc(OCCCCCCN2CCNCC2)cc1`, the solubility kinetic is reported as 31.9 µg/mL (≈ 100 µM). `Nc1nc(F)nc2c1ncn2[C@@H]1O[C@H](CO)[C@@H](O)[C@H]1O` gave a solubility kinetic greater than 42.8 µg/mL. With `CC1c2ccsc2CCN1S(=O)(=O)c1cccs1` (stereo unspecified) the solubility kinetic was 23.5 µg/mL (≈ 78.5 µM). With `CNc1nc(-c2ccc3c(c2)CCN3C(=O)CC(C)(C)C)c(C)s1` the solubility kinetic was 17.5 µg/mL (≈ 50.9 µM). Compound `N#Cc1cccnc1N1CCN(C(=O)c2ccccc2)CC1` has a solubility kinetic of 43.4 µg/mL (≈ 148 µM). Work on `Cc1c(Cl)cccc1NC(=S)Nc1ccc(S(=O)(=O)Nc2ncccn2)cc1` yielded a solubility kinetic of 64.9 µg/mL (≈ 150 µM). `Cc1ccc(S(=O)(=O)N2CCc3ccccc3C2)cc1C` gave a solubility kinetic of less than 0.6 µg/mL. `O=C(O)CC1(CC(=O)NCc2cc(F)cc3c2OCOC3)CCCCC1` gave a solubility kinetic greater than 54.8 µg/mL. With `CSc1ncccc1C(=O)OCC(=O)N1CC2(C)CC1CC(C)(C)C2` (stereo unspecified) the solubility kinetic was greater than 54.4 µg/mL. `O=C(CN1CCCCCC1)Nc1ccc([N+](=O)[O-])cc1Br` gave a solubility kinetic of 3 µg/mL (≈ 8.42 µM). With `CC(C)c1ccc(NC(=O)CCc2ccccc2)cc1` the solubility kinetic was 3.9 µg/mL (≈ 14.6 µM). With `O=S(=O)(Nc1ccc(C(F)(F)F)cc1)c1cccs1` the solubility kinetic was 45.1 µg/mL (≈ 147 µM). Work on `O=C(Cc1ccc(Br)cc1)OCC(=O)N1CCCCCC1` yielded a solubility kinetic greater than 53.1 µg/mL. `CCN(CC(=O)NCc1ccc2c(c1)OCO2)S(=O)(=O)c1ccc(F)cc1` gave a solubility kinetic of 55.6 µg/mL (≈ 141 µM). With `Cc1cc2ncn(S(=O)(=O)c3ccc(F)cc3)c2cc1C` the solubility kinetic was 31.8 µg/mL (≈ 104 µM). For `Nc1cnn(C2OC(CO)C(O)C2O)c(=O)n1` (stereo unspecified), the solubility kinetic was greater than 36.6 µg/mL.
